The results in this text go back to article PMC10338316, “Functional and structural characterization of Streptococcus pneumoniae pyruvate kinase involved in fosfomycin resistance” (The Journal of Biological Chemistry, 2023).

What is called stoichiometry N is a count of units in the complex or per binding partner.

In data set [1] the target is T1, SpPYK (Streptococcus pneumoniae, UniProt Q8DQ84).
T1 construct: gene pykF; recombinant, E. coli BL21(DE3) derivative, His60 Ni resin (tag details in supplement); homotetramer; single pyk gene
The experiment in a line: X-ray crystal structure (PEP; PEP/FBP at […] Å). The class given is binding. To be noted: catalytic site, Mg2+ and K+.

Data set [2] has as its target T1, SpPYK. The experiment in a line: X-ray crystal structure (oxalate; oxalate/FBP). The class given is binding. To be noted: catalytic site; enolpyruvate analog; weak density for a second oxalate in the effector site.
In data set [3] the target is T1, SpPYK. The experiment in a line: lactate dehydrogenase coupled assay, NADH absorbance at […] nm. The class given is biochemical. Particulars: allosteric activator (modest), 2 mM G6P; PEP varied, 3 mM ADP, pH 7.5, 25 °C.
The next data set relates to C=C(OP(=O)(O)O)C(=O)O. The experiment in a line: purified protein. To be noted: 3 mM ADP, 10 mM MgCl2, 100 mM KCl, 20 mM HEPES pH 7.5, 25 °C, no effector, Hill coefficient 1.88 ± 0.10.
For data set [4], the system named is Nc1ncnc2c1ncn2[C@@H]1O[C@H](COP(=O)(O)OP(=O)(O)O)[C@@H](O)[C@H]1O. The experiment in a line: purified protein. To be noted: 3 mM PEP, 10 mM MgCl2, 100 mM KCl, 20 mM HEPES pH 7.5, 25 °C, Hill coefficient 1.47 ± 0.07.
The target in data set [5] is T1, SpPYK. The experiment in a line: X-ray crystal structure (FBP, PEP/FBP at […] Å, oxalate/FBP). To be noted: allosteric activator; effector binding site in the C domain.
Data set [6] concerns the molecule itself. The experiment in a line: crystal structure; X-ray crystal structures of SpPYK in six states (apo, oxalate, oxalate/FBP, FBP, PEP, PEP/FBP); vapor diffusion at 25 °C, 15 to 20 mg/ml protein in 20 mM HEPES pH 7.5, 150 mM NaCl, for the ligand-bound forms with 100 mM KCl, 20 mM MgCl2 and 5-20 mM ligand(s); protomers of the tetramer.

As to `C=C(OP(=O)(O)O)C(=O)O` [PEP, phosphoenolpyruvate], the “X-ray crystal structure (PEP; PEP/FBP at 1.8 Å)” value at SpPYK [1] was “The bound PEP or oxalate is seen in the catalytic site”.
As to `O=C(O)C(=O)O` [oxalate], on SpPYK [2], the “X-ray crystal structure (oxalate; oxalate/FBP)” value is “The bound PEP or oxalate is seen in the catalytic site”.
In the case of `O=P(O)(O)OC[C@H]1OC(O)[C@H](O)[C@@H](O)[C@@H]1O` (stereo partly shown) [G6P, glucose 6-phosphate], on SpPYK [3], the “lactate dehydrogenase coupled assay, NADH absorbance at 340 nm” value was “only a modest activation effect was observed upon G6P addition”.
For the molecule SpPYK (Streptococcus pneumoniae R6), the figures for the K0.5 (in the data set on C=C(OP(=O)(O)O)C(=O)O; in data set [4]) were 1.36 ± 0.06 mM and 1.09 ± 0.06 mM, respectively.
`O=P(O)(O)OC[C@H]1OC(O)(COP(=O)(O)O)[C@@H](O)[C@@H]1O` (stereo partly shown) [FBP, fructose 1,6-bisphosphate]: the “X-ray crystal structure (FBP, PEP/FBP at 1.8 Å, oxalate/FBP)” value on SpPYK [5] was “FBP is found at the effector binding site in the C domain”.

B1: Streptococcus pneumoniae pyruvate kinase (enzyme)
chain: MNKRVKIVATLGPAVEIRGGKKFGEDGYWGEKLDVEASAKNIAKLIEAGANTFRFNFSHGDHQEQGERMATVKLAEKIAGKKVGFLLDTKGPEIRTELFEGEAKEYSYKTGEKIRVATKQGIKSTREVIALNVAGALDIYDDVEVGRQVLVDDGKLGLRVVAKDDATREFEVEVENDGIIAKQKGVNIPNTKIPFPALAERDNDDIRFGLEQGINFIAISFVRTAKDVNEVRAICEETGNGHVQLFAKIENQQGIDNLDEIIEAADGIMIARGDMGIEVPFEMVPVYQKMIIKKVNAAGKVVITATNMLETMTEKPRATRSEVSDVFNAVIDGTDATMLSGESANGKYPLESVTTMATIDKNAQALLNEYGRLDSDSFERNSKTEVMASAVKDATSSMDIKLVVTLTKTGHTARLISKYRPNADILALTFDELTERGLMLNWGVIPMLTDAPSSTDDMFEIAERKAVEAGLVESGDDIVIVAGVPVGEAVRTNTMRIRTVR
notes: pyruvate kinase (PYK) of Streptococcus pneumoniae, wild type; the strain of the cloned gene and the construct limits are told only in the Supporting information; Homotetramer in the crystal structures; also called SpPYK; PYK
For the molecule B1, the “stoichiometry N” value in data set [6] came to 4.
